Source: ChEMBL document CHEMBL1142472, “New ferrocenic pyrrolo[1,2-a]quinoxaline derivatives: synthesis, and in vitro antimalarial activity” (Bioorg Med Chem, 2008)
Activity calls are given as the source filed them. The calls are words filed in the database; no cut-off is given here.

Molecular target: T1, Histidine-rich protein PFHRP-II (Plasmodium falciparum) (UniProt P05227)
T1 sequence (whole entry): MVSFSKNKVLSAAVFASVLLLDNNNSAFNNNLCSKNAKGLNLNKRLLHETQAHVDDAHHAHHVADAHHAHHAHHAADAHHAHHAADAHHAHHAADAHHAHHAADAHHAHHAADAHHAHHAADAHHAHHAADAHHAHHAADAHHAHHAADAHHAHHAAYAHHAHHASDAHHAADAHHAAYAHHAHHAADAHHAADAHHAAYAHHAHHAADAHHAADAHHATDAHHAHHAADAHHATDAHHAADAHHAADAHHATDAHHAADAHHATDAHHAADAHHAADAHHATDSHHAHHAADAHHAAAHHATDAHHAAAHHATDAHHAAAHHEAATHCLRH
Assay: Inhibition of beta-hematin formation assessed as drug: hematin molar ratio causing inhibition of hem polymerization after 24 hrs by HPIA method
Type: functional

SMILES | Ratio IC50 | Activity
C[C@@H]1CC[C@H]2[C@@H](C)C(=O)O[C@@H]3O[C@@]4(C)CC[C@@H]1[C@]32OO4 | 1.5 | –
COc1cc(NS(=O)(=O)c2ccc(N)cc2)nc(OC)n1 | – | inactive
